SMILES strings stand for the structures.

This assay deals with M. tuberculosis log-phase replicating growth, plate reader. The experiment in a line: growth inhibition of replicating M. tuberculosis, dose response, counter-screen, dry powder (AID 651617).
Broadly, the IC90 is the point of the concentration-response curve where the effect stands at 90%. Consider `c1ccc(-c2nnc(SCC3CC3)o2)cc1`, for which the 90% effect concentration (IC90) is 125 µM.

For `[N-]=[N+]=NCCOCCNC(=O)CCCOc1ccc(CS(=O)c2nnc(-c3ccc(F)cc3)o2)nc1` (stereo not drawn), the IC90 was 125 µM. For the compound `c1ccc(-c2nnc(SCc3cccnc3)o2)cc1`, the IC90 was 125 µM.

Source of the values: PubChem BioAssay AID651617 (Broad Institute, 2012).
